Laboratory results as given in ChEMBL document CHEMBL3797197, “Design and synthesis of triazole-based peptidomimetics of a PSD-95 PDZ domain inhibitor” (Medchemcomm, 2016).
Active and inactive are the calls of the source. No cut-off for these calls is given here. Residues, ends and D or L forms follow the SMILES beside them.

What was measured:
[1] = target: T1, Disks large homolog 4 (Homo sapiens, UniProt P78352); experiment: Displacement of Cy5-GluN2B from N-terminal His-tagged full length human PSD-95alpha PDZ2 domain (155 to 249 residues) without exon 4b expressed in Escherichia coli BL21(DE3)pLysS by fluorescence polarization assay
Target sequence in this assay (P78352 whole entry, the tested form may be a part): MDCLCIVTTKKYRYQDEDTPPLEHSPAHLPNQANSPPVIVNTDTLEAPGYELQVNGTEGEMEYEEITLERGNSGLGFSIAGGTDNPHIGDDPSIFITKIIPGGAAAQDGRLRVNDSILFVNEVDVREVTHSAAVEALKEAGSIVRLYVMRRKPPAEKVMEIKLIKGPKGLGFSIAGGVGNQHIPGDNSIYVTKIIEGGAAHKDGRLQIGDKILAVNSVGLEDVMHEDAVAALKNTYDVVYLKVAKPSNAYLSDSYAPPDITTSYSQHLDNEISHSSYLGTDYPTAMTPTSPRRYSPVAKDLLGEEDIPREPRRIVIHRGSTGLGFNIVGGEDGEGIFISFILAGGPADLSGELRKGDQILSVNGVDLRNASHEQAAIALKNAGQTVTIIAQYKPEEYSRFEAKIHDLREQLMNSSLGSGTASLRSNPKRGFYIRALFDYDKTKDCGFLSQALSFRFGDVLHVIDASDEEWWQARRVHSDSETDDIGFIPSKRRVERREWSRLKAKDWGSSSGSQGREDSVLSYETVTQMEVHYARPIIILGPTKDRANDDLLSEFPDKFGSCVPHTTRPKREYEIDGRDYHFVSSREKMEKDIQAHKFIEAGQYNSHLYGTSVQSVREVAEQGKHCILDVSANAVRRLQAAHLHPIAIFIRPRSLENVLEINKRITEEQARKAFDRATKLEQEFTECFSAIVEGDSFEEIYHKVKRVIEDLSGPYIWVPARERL

[2] = target: T1, Disks large homolog 4; experiment: Displacement of Cy5-GluN2B from N-terminal His-tagged human full length PSD-95alpha PDZ1 domain (61 to 151 residues) without exon 4b expressed in Escherichia coli BL21(DE3)pLysS by fluorescence polarization assay
Target sequence in this assay (P78352 whole entry, the tested form may be a part): as above

[3] = target: T1, Disks large homolog 4; experiment: Displacement of Cy5-CRIPT from N-terminal His-tagged human full length PSD-95alpha PDZ3 domain (309 to 401 residues) without exon 4b expressed in Escherichia coli BL21(DE3)pLysS by fluorescence polarization assay
Target sequence in this assay (P78352 whole entry, looked up, the tested form may be a part): as the sequence (P78352 whole entry, the tested form may be a part) above

[4] = target: T1, Disks large homolog 4; experiment: Ratio of Kd for N-terminal His-tagged full length human PSD-95alpha PDZ2 domain (155 to 249 residues) without exon 4b expressed in Escherichia coli BL21(DE3)pLysS by […] method to Ki for N-terminal His-tagged full length human PSD-95alpha PDZ2 domain (155 to 249 residues) without exon 4b expressed in Escherichia coli BL21(DE3)pLysS by fluorescence polarization assay
Target sequence in this assay (P78352 whole entry, looked up, the tested form may be a part): as the sequence (P78352 whole entry, the tested form may be a part) above

[5] = target: T1, Disks large homolog 4; experiment: Binding affinity to N-terminal His-tagged full length human PSD-95alpha PDZ2 domain (155 to 249 residues) without exon 4b expressed in Escherichia coli BL21(DE3)pLysS by […] method
Target sequence in this assay (P78352 whole entry, the tested form may be a part): as above

[6] = target: Disks large homolog 4 (Rattus norvegicus, UniProt P31016); experiment: Inhibition of rat PSD-95 PDZ1 domain interaction with mouse 5HT2A receptor after 18 hrs by pull down assay
[7] = target: T1, Disks large homolog 4; experiment: Potency index, ratio of indole 1 Ki to compound Ki for N-terminal His-tagged full length human PSD-95alpha PDZ2 domain (155 to 249 residues) without exon 4b expressed in Escherichia coli BL21(DE3)pLysS
Target sequence in this assay (P78352 whole entry, looked up, the tested form may be a part): as the sequence (P78352 whole entry, the tested form may be a part) above

Chain of Disks large homolog 4 (Rattus norvegicus, UniProt P31016) (P31016 whole entry, the tested form may be a part): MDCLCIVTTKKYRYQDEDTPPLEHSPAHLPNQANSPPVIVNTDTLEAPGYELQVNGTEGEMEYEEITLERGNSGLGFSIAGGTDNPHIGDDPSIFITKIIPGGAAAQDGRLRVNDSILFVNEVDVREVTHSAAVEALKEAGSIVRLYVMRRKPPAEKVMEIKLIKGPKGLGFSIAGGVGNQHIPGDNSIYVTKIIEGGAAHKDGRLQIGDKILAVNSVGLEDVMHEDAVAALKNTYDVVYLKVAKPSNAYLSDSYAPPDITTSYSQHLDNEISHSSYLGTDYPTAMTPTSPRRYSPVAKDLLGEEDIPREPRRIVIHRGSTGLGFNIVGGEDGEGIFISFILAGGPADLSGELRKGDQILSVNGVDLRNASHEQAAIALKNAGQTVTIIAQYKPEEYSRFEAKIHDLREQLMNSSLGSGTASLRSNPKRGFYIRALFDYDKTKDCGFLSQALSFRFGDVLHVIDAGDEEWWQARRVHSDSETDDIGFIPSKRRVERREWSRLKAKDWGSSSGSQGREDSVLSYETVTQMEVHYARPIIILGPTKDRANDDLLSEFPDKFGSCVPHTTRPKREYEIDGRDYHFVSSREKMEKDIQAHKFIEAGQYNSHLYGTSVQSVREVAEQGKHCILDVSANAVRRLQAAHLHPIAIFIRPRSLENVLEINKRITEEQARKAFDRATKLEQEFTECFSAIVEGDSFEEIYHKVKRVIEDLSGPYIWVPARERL

Compound	Ki [1]	Ki [2]	inhibition [3]	Ratio [4]	Kd [5]	IC50 [6]	Ratio Ki [7]
CC(C)[C@@H](C(=O)O)n1cc([C@H](C)NC(=O)[C@@H](N)[C@@H](C)O)nn1	> 500 µM						
Cc1c(C(=O)O)[nH]c2cc(C(=O)O)c(O)cc12	530 µM	> 1000 µM	inactive				
CC(C)[C@H](NC(=O)[C@H](C)NC(=O)[C@@H](N)[C@@H](C)O)C(=O)O (H-Thr-Ala-Val-OH)	38 µM	74 µM		2	101 µM		
Cc1c(C(=O)O)n(CCCC(=O)O)c2cc(C(=O)O)c(OCc3ccccc3)cc12	> 500 µM	> 1000 µM	inactive			190 µM	
CC(C)[C@H](NC(=O)[C@H](C)NC(=O)[C@@H](N)CO)C(=O)O (H-Ser-Ala-Val-OH)	229 µM	480 µM					
CC(C)[C@H](NC(=O)[C@H](C)n1cc([C@@H](N)[C@@H](C)O)nn1)C(=O)O	289 µM	> 500 µM	inactive	2	598 µM		2
CC(C)[C@H](NC(=O)c1cn([C@H](C(=O)O)C(C)C)nn1)C(=O)O	> 500 µM						
